Literature values, collected in PMC7576618 (British Journal of Clinical Pharmacology, 2020).
Read-outs that look alike come from different tables or passages of the source.

Assays:
[1] = humans; cited from earlier work
[2] = active compound LY2812223; cited from earlier work
mGlu2 receptor [3] = conditions: read-out: EC50 (assay system used by Eli Lilly); cited from earlier work
mGlu2 receptor [4] = conditions: read-out: in vitro EC50 for mGlu2 receptor; cited from earlier work

CSCC[C@H](N)C(=O)N[C@@]1(C(=O)O)CS(=O)(=O)[C@H]2[C@H](C(=O)O)[C@H]21 [LY2140023]
plasma exposure of the prodrug relative to that of LY404039 [1]: approximately 30%

C[C@H](N)C(=O)N[C@@]1(C(=O)O)C[C@@H](Sc2nnc[nH]2)[C@H]2[C@H](C(=O)O)[C@H]21 [LY2979165]
plasma levels of prodrug relative to its active compound [2]: < 1%

N[C@@]1(C(=O)O)CC[C@H]2[C@H](C(=O)O)[C@H]21 [LY354740, (+)‐2‐aminobicyclo[3.1.0]hexane‐2,6‐dicarboxylic acid]
EC50 (mGlu2 receptor [3]): 5.1 nM | EC50 (mGlu2 receptor [4]): 18.3 nM
